Data taken from paper PMC7806935, “Exosite inhibition of ADAMTS-5 by a glycoconjugated arylsulfonamide” (Scientific Reports, 2021).

Tests used:
ADAMTS-4 [1] = target: T1, ADAMTS-4 (Homo sapiens, UniProt O75173); test: Versican digestion assay (V1-5GAG, sandwich ELISA), ADAMTS-4; type: biochemical; details: protein substrate V1-5GAG, mean ± SEM (n = 3)
T1 construct: made in house
T1 sequence (O75173 213-837): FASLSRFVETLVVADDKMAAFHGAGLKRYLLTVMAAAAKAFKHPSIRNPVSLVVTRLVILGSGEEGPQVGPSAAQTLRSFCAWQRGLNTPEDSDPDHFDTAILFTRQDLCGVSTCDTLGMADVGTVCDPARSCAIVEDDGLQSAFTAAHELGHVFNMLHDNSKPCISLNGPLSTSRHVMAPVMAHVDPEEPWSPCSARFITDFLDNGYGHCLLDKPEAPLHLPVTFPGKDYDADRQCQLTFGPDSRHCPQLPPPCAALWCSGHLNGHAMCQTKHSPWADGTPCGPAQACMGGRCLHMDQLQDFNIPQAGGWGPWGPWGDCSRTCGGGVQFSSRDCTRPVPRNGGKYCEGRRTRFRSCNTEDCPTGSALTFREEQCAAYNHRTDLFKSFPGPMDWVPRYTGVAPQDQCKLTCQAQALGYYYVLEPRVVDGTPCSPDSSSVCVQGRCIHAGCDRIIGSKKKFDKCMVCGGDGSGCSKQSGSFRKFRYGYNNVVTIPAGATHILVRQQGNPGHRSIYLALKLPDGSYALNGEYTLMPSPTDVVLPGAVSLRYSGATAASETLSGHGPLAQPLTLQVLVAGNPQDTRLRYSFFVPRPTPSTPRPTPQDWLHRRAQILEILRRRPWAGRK
Procedure: (§1) All enzyme assays were conducted in TNC-B buffer (50 mM Tris–HCl, pH 7.5, 150 mM NaCl, 10 mM CaCl2, and 0.02% NaN3) at 37 °C. To avoid the formation of inhibitor aggregates, the detergent Brij-35 (0.05%) was added to the assay buffer. No aggregation was visually observed at concentrations up to 2 mM. The inhibitor stock solutions in DMSO (10 mM) were diluted at different concentrations in assay buffer and incubated with ADAMTS-4 or ADAMTS-5 for 2 h at 37 °C. Percent of inhibition was calculated from control reactions containing only DMSO. IC50 values were determined using the formula: vi/v0 = 1/(1 + [I]/IC50) where vi is the initial velocity of substrate cleavage in the presence of the inhibitor at concentration [I] and v0 is the initial velocity in the presence of an equal concentration (v/v) of DMSO.
(§2) ADAMTS-5 full-length (FL) (final concentration 0.4 nM), ADAMTS-5 MDTCS (0.4 nM) ADAMTS-5 MD (26 nM) or ADAMTS-4 (5.5 nM) were incubated with different concentrations of inhibitors or DMSO for 2 h at 37 °C in TNC-B buffer before addition of V1-5GAG (50 nM). At different time points (0–20 min), sub-samples were removed and reactions were stopped with EDTA. Maxisorp plates (VWR, Lutterworth, UK) were coated with 5 μg/mL anti-DPEEAE neoepitope antibody (Cat n. PA1-1748A, Life Technologies, Paisley, UK) in carbonate buffer pH 9.6 (16 h, 4 °C). This neoepitope antibody specifically recognizes the N-terminal versican fragment versikine, generated when ADAMTS-5 cleaves versican at the Glu441↓442Ala bond. Washing steps were performed in triplicate with 300 μL phosphate buffered-saline (PBS) containing 0.1% Tween-20 between each step. Plates were blocked with 3% bovine serum albumin (BSA)/PBS for 2 h, at RT. The samples from the digestion experiments were diluted in 3% BSA/PBS and added to the plate (100 μL, 2 h, RT). Bound versikine fragments were detected using anti-G1 monoclonal antibody (Cat n. ab171887, Abcam, Cambridge, UK) (3 μg/mL in 0.5% BSA/PBS, 1.5 h, RT), followed by horseradish peroxidase (HRP)-conjugated anti-mouse antibodies (Cat. N. P044701-2, Agilent Technologies LTD, Cheadle, UK) (2.4 μg/mL, 1 h, RT). The assay was developed by addition of o-phenylenediamine dihydrochloride (OPD, Cat n. 34006, Sigma Aldrich, Gillingham, UK) for 10 min and reactions were stopped with 2 M H2SO4. The absorbance was measured at 492 nm using a BioTeK Epoch (BioTek, Swindon, UK) plate reader. For each dilution, the amount of neoepitope generated was derived from a standard curve (0–1.56 nM) of V1-5GAG completely digested with ADAMTS-5. Initial velocities were calculated from the concentration of versikine generated as a function of reaction time and IC50 values were determined.
(§3) For inhibition studies, initial rates of proteolysis (< 20% cleavage) were analyzed between 0 and 20 min. For determination of the specificity constants (kcat/Km), digestion reactions were allowed to occur to completion (0–2 h). Data were analyzed as previously described.

ADAMTS-5 [2] = target: T2, ADAMTS-5 (Homo sapiens, UniProt Q9UNA0); test: Versican digestion assay (V1-5GAG, sandwich ELISA), ADAMTS-5; type: biochemical; details: for IC50: protein substrate V1-5GAG, mean ± SEM (n = 3)
T2 construct: made in house
T2 sequence (Q9UNA0 262-930): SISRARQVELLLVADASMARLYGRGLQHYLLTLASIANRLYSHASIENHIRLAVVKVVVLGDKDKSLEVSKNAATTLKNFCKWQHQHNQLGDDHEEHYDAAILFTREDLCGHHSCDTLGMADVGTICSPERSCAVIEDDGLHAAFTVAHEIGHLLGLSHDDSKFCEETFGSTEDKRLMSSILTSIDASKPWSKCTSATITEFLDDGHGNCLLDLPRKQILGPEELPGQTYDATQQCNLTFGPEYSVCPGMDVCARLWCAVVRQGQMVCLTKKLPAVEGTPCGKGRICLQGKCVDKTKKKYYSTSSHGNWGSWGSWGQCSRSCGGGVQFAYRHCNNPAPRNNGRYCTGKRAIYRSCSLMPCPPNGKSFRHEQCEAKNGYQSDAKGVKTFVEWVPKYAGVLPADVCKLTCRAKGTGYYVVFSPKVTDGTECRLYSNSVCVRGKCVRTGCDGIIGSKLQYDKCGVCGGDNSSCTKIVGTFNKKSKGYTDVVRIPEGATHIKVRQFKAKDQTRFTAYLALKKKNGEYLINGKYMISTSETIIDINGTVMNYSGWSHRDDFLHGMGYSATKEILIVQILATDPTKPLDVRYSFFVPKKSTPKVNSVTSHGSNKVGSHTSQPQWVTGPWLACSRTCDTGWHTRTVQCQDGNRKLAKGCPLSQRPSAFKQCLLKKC
Procedure: as §1, §2, §3

ADAMTS-4 [3] = target: T1, ADAMTS-4; test: QF peptide cleavage assay, ADAMTS-4; type: biochemical; details: 12-residue QF peptide substrate; mean ± SEM (n = 3); read-out: IC50 (μM) QF peptide ATS4
Procedure: as §1
(§4) QF peptide cleavage assays were conducted in 96-well black microtiter plates (Scientific Laboratories Supplies Ltd, Wilford, UK) using a Fluostar Omega microplate reader (BMG Labtech, Aylesbury, UK). The activity of ADAMTS-4 (1 nM) and -5 (5 nM) was monitored for 2 h using the fluorescent peptide substrates fluorescein 5(6)-carbonyl-Ala-Glu-Leu-[…]-Gly-Arg-Pro-Ile-Ser-Ile-Ala-Lys-N,N,N0,N0-tetramethyl-6-carboxyrhodamine-NH2 (FAM-AE ~ LQGRPISIAK-TAMRA, ADAMTS-4) and fluorescein 5(6)-carbonyl-Thr-Glu-Ser-Glu ~ Ser-Arg-Gly-Ala-Ile-Tyr-Lys-Lys-N,N,N0,N0-tetramethyl-6-carboxyrhodamine-NH2 (FAM-TESE ~ SRGAIYKK-TAMRA, ADAMTS-5) (custom-synthesized by Bachem, Bubendorf, Switzerland) with an excitation wavelength of 485 nm and an emission wavelength of 538 nm. Final substrate concentrations were 1 μM and 40 μM for ADAMTS-4 and -5, respectively. Fluorescence was expressed in relative fluorescence units (RFU) and normalized against a blank containing only buffer and substrate. Emission spectra were recorded at several concentrations of each compound to exclude auto-fluorescence and maximal inhibitor concentrations were selected accordingly.

ADAMTS-5 [4] = target: T2, ADAMTS-5; test: QF peptide cleavage assay, ADAMTS-5; type: biochemical; details: 12-residue QF peptide substrate; mean ± SEM (n = 3); read-out: IC50 (μM) QF peptide ATS5
Procedure: as §1, §4

[5] = target: V1-5GAG, a truncated versican V1 variant (UniProt P13611)
[6] = read-out: IC50 (μM) V1-5GAG ATS4
[7] = read-out: IC50 (μM) V1-5GAG ATS5

Row | Compound | IC50 (ADAMTS-4 [1]; read-out: IC50 (μM) ADAMTS-4) | IC50 (ADAMTS-5 [2]; read-out: IC50 (μM) ADAMTS-5) | kcat/Km for proteolysis of V1-5GAG (time course at 50 nM substrate, versikine by sandwich ELISA) [5] | further results
1 | CCC(C)N(Cc1cn(CCCOC2OC(CO)C(O)C(O)C2NC(C)=O)nn1)S(=O)(=O)c1ccc(OCc2ccc(F)cc2Cl)cc1 (mixture of isomers) [Compound 4c] |  |  |  | IC50 (ADAMTS-4 [3]): > 50 µM; IC50 (ADAMTS-5 [4]): 57 ± 10 µM; IC50 (ADAMTS-4 [1]; [6]): 90 ± 44 µM; reduction in inhibitory properties (ADAMTS-5 [2]; benzyloxyphenyl compound compared to 4b): 6 fold; IC50 (ADAMTS-5 [2]; [7]): 62 ± 12 µM
2 | CCC(C)N(Cc1cn(CCCOC2OC(CO)C(O)C(O)C2NC(C)=O)nn1)S(=O)(=O)c1ccc(OCc2ccccc2)cc1 (mixture of isomers) [Compound 4d] |  |  |  | IC50 (ADAMTS-4 [3]): > 50 µM; IC50 (ADAMTS-5 [4]): > 50 µM; IC50 (ADAMTS-4 [1]; [6]): 180 ± 50 µM; IC50 (ADAMTS-5 [2]; [7]): 90 ± 23 µM
3 | ADAMTS-5 MDTCS (lacking the C-terminal TS motif) (enzyme) |  |  | 3.23e+06 M⁻¹ s⁻¹ | 
4 | ADAMTS-5 MDTCS K532A/K533A (enzyme) |  |  | 675000 M⁻¹ s⁻¹ | 
5 | ADAMTS-5 MDTCS K532Q/K533Q (enzyme) |  |  | 401000 M⁻¹ s⁻¹ | 
6 | ADAMTS-5 MDTCS K533A (enzyme) |  |  | 1.25e+06 M⁻¹ s⁻¹ | 
7 | ADAMTS-5 MDTCS K533H (enzyme) |  |  | 1.56e+06 M⁻¹ s⁻¹ | 

Further lines, with some results ahead:

Row | IC50 (ADAMTS-4 [1]; read-out: IC50 (μM) ADAMTS-4) | IC50 (ADAMTS-5 [2]; read-out: IC50 (μM) ADAMTS-5) | kcat/Km for proteolysis of V1-5GAG (time course at 50 nM substrate, versikine by sandwich ELISA) [5] | Compound | further results
8 | 50 ± 16 µM | 120 ± 20 µM |  | CCC(C)N(Cc1cn(C2OC(CO)C(O)C(O)C2NC(C)=O)nn1)S(=O)(=O)c1ccc(-c2ccccc2)cc1 (mixture of isomers) [Compound 3b] | reduction in inhibition of ADAMTS-5 versicanase activity (ADAMTS-5 [2]; sugar directly linked to the sulfonamide scaffold, compared with n-propyloxy link): ~ 13 fold
9 | > 50 µM | > 50 µM |  | CC(=O)N[C@@H]1[C@@H](O)[C@H](O)[C@@H](CO)O[C@H]1n1cc(CN([C@@H](C(=O)OCc2ccccc2)C(C)C)S(=O)(=O)c2ccc(-c3ccccc3)cc2)nn1 [Compound 3a] | 
10 | > 50 µM | > 50 µM |  | CC(=O)N[C@H]1[C@H](OCCCn2cc(CN([C@@H](C(=O)OCc3ccccc3)C(C)C)S(=O)(=O)c3ccc(-c4ccccc4)cc3)nn2)O[C@H](CO)[C@@H](O)[C@@H]1O [Compound 4a] | 
